Measured values: paper PMC7161086 (Peptides, 2019)

What was measured:
[1] = tested on: Staphylococcus aureus JE2 MRSA; test: MIC assay, broth microdilution; type: cell-based
Escherichia coli K12 = test: MIC assay, broth microdilution; type: cell-based; settings: 37 °C, 24 h, MHB
[2] = tested on: Staphylococcus aureus ATCC 43300 MRSA; test: MIC, additional antimicrobial activities; type: cell-based; settings: for Minimal inhibitory concentration (MIC) Sa: Staphylococcus aureus ATCC 43300 MRSA
[3] = tested on: Escherichia coli ATCC 25922; test: MIC, additional antimicrobial activities; type: cell-based
[4] = tested on: Psedomonas aeruginosa ATCC 27853; test: MIC, additional antimicrobial activities; type: cell-based
[5] = tested on: Acinetobacter baumannii ATCC 19606; test: MIC, additional antimicrobial activities; type: cell-based
[6] = tested on: Candida albicans ATCC 90028; test: MIC, additional antimicrobial activities; type: cell-based
[7] = tested on: Cryptococcus neoformans var. grubii H99 ATCC 20882; test: MIC, additional antimicrobial activities; type: cell-based
human red blood cells = type: cell-based
[8] = tested on: Klebsiella pneumoniae ATCC 700603
[9] = tested on: HEK-293 human embryonic kidney cells (ATCC CRL-1573); test: Cytotoxicity, resazurin test; type: cell-based; settings: performed by CO-ADD

Substance	Minimal inhibitory concentration (MIC) Sa ([1]; Staphylococcus aureus JE2 MRSA, 37 °C, 24 h, MHB) [µg/mL]	fold increase in activity (decrease of MIC) against S. aureus ([1]; relative to Cit 1.1) [fold]	Minimal inhibitory concentration (MIC) Ec (Escherichia coli K12) [µg/mL]	Minimal inhibitory concentration (MIC) Sa [2] [µg/mL]	fold increase in activity (decrease of MIC) against MRSA strains ([2]; relative to Cit 1.1, MRSA strains JE2 and ATCC 43300) [fold]	Minimal inhibitory concentration (MIC) Ec [3] [µg/mL]	Minimal inhibitory concentration (MIC) Pa [4] [µg/mL]	Minimal inhibitory concentration (MIC) Ab [5] [µg/mL]	Minimal inhibitory concentration (MIC) Ca [6] [µg/mL]	Minimal inhibitory concentration (MIC) Cn [7] [µg/mL]	HC50 Human red blood cells (human red blood cells) [µg/mL]	Minimal inhibitory concentration (MIC) Kp [8] [µg/mL]	IC50 HEK-293 [9] [µg/mL]
GLFDVIRRVASVIGGL [AMP-012]	16	2	32	16	2	32	> 32	32	16	16	18.2	> 32	–
GLFDVI(Orn)(Orn)VASVIGGL [AMP-006]	–	–	–	32	–	> 32	> 32	> 32	> 32	32	–	> 32	> 32
